From ChEMBL document CHEMBL1255325, “Plasmid-mediated qepA gene among Escherichia coli clinical isolates from Japan” (2008) come the findings set out here.

In brackets after ≈: the same amount, converted by molar mass.

Experiment [1] deals with Escherichia coli. Kind of experiment: Antimicrobial activity against Escherichia coli MRY04-1060 expressing qepA gene by agar dilution CLSI method. The format is functional. In general terms: In agar dilution, organisms are placed on agar that contains the substance at set levels.
In experiment [2] the test system is Escherichia coli. Kind of experiment: Antimicrobial activity against Escherichia coli MRY05-3283 expressing qepA and rmtB gene by agar dilution CLSI method. The class given is functional.
For experiment [3], the system named is Escherichia coli. Kind of experiment: Antimicrobial activity against Escherichia coli isolate DH10B by agar dilution CLSI method.
Experiment [4] deals with Escherichia coli. Put plainly: Ratio of MIC for Escherichia coli DH10B harboring p05283 carrying qepA and rmtB gene to MIC for Escherichia coli isolate DH10B. The class given is functional.
Experiment [5] concerns Escherichia coli. Put plainly: Antimicrobial activity against Escherichia coli DH10B harboring p05283 carrying qepA and rmtB gene by agar dilution CLSI method. The class given is functional.
Experiment [6] concerns Escherichia coli. Kind of experiment: Antimicrobial activity against Escherichia coli DH10B harboring p041060 carrying qepA gene by agar dilution CLSI method. The class given is functional.
The subject of experiment [7] is Escherichia coli. Kind of experiment: Ratio of MIC for Escherichia coli DH10B harboring p041060 carrying qepA gene to MIC for Escherichia coli isolate DH10B. The class given is functional.

With `CCn1cc(C(=O)O)c(=O)c2cc(F)c(N3CCNCC3)cc21` [NORFLOXACIN], the minimal inhibitory concentration (MIC) against Escherichia coli [1] is more than 128 µg/mL; in the experiment on Escherichia coli [2], more than 128 µg/mL; against Escherichia coli [3] it was not above 0.008 µg/mL; in the experiment with Escherichia coli [5], 0.25 µg/mL (≈ 0.783 µM); in the experiment on Escherichia coli [6] it was 0.25 µg/mL (≈ 0.783 µM). Further, the Ratio in the experiment on Escherichia coli [4] and with Escherichia coli [7] was 4 in each case.
As to GENTAMICIN, the MIC with Escherichia coli [1], against Escherichia coli [2], against Escherichia coli [5] and in the experiment with Escherichia coli [6] was more than 128 µg/mL each time.
`CO/N=C(\C(=O)N[C@@H]1C(=O)N2C(C(=O)O)=C(COC(C)=O)CS[C@H]12)c1csc(N)n1` [CEFOTAXIME]: the MIC against Escherichia coli [1] turned out to be 0.13 µg/mL (≈ 0.285 µM); with Escherichia coli [2], 0.13 µg/mL (≈ 0.285 µM); with Escherichia coli [3], 0.06 µg/mL (≈ 0.132 µM); with Escherichia coli [5], 0.06 µg/mL (≈ 0.132 µM); in the experiment with Escherichia coli [6] it was 0.06 µg/mL (≈ 0.132 µM).
`NCC[C@H](O)C(=O)N[C@@H]1C[C@H](N)[C@@H](O[C@H]2O[C@H](CN)[C@@H](O)[C@H](O)[C@H]2O)[C@H](O)[C@H]1O[C@H]1O[C@H](CO)[C@@H](O)[C@H](N)[C@H]1O` [AMIKACIN]: the MIC in the experiment with Escherichia coli [1] was more than 128 µg/mL; in the experiment with Escherichia coli [2] it was more than 128 µg/mL; against Escherichia coli [3], 2 µg/mL (≈ 3.42 µM); in the experiment on Escherichia coli [5] it was more than 128 µg/mL; against Escherichia coli [6], more than 128 µg/mL.
Consider `CC(C)(O/N=C(\C(=O)N[C@@H]1C(=O)N2C(C(=O)[O-])=C(C[n+]3ccccc3)CS[C@H]12)c1csc(N)n1)C(=O)O` [CEFTAZIDIME], for which the MIC in the experiment on Escherichia coli [1] was 0.5 µg/mL (≈ 0.915 µM); in the experiment on Escherichia coli [2], 0.5 µg/mL (≈ 0.915 µM); in the experiment on Escherichia coli [3] it was 0.25 µg/mL (≈ 0.457 µM); against Escherichia coli [5] it was 0.5 µg/mL (≈ 0.915 µM); in the experiment on Escherichia coli [6], 0.5 µg/mL (≈ 0.915 µM).
As for `C[C@H]1COc2c(N3CCN(C)CC3)c(F)cc3c(=O)c(C(=O)O)cn1c23.C[C@H]1COc2c(N3CCN(C)CC3)c(F)cc3c(=O)c(C(=O)O)cn1c23.O` [LEVOFLOXACIN], the MIC against Escherichia coli [1] was 64 µg/mL; in the experiment with Escherichia coli [2] it was 128 µg/mL; against Escherichia coli [3], not above 0.008 µg/mL.
The like results for `C[C@@H](O)[C@H]1C(=O)N2C(C(=O)O)=C(SCCNC=N)C[C@H]12` [IMIPENEM ANHYDROUS] were, in that order, 0.13 µg/mL (≈ 0.434 µM), 0.13 µg/mL (≈ 0.434 µM) and 0.25 µg/mL (≈ 0.835 µM).
In the case of `NC[C@H]1O[C@H](O[C@H]2[C@H](O)[C@@H](O[C@H]3O[C@H](CO)[C@@H](O)[C@H](N)[C@H]3O)[C@H](N)C[C@@H]2N)[C@H](N)C[C@@H]1O` [TOBRAMYCIN], the MIC in the experiment on Escherichia coli [1] is more than 128 µg/mL; with Escherichia coli [2], more than 128 µg/mL; against Escherichia coli [3], 0.5 µg/mL (≈ 1.07 µM); against Escherichia coli [5], more than 128 µg/mL; against Escherichia coli [6], more than 128 µg/mL.

As usually defined, the MIC is the lowest concentration found to suppress growth. Read a high MIC as weaker potency.
